Tests used:
primary rat astrocytes = test: Superoxide anion production in primary rat astrocytes incubated with oxaliplatin; assay type: cell-based; conditions: oxaliplatin 100 μM alone, 4 hours; control 16.9±0.3 μM
Method: FIG. 1. Evaluation of the antioxidant profile of ADM-12 in a rat primary astrocytes cell culture *P<0.01 with respect to the untreated control and ̂P<0.01 with respect to astrocytes treated with oxaliplatin.
The antioxidant profile of ADM-12 also emerges in a cell culture of primary rat astrocytes (FIG. 1). Incubation of cells with the chemotherapic agent oxaliplatin 100 μM induces a significant production of the superoxide anion, which after 4 hours increases from 16.9±0.3 μM of the control to 31.1±2.1 μM; co-treatment with ADM-12 100 μM reduces the production of oxygen free radicals to 21.0±0.4 μM.

[1] = Compatibility with oxaliplatin in physiological solution (1H NMR, mass spectra); assay type: physicochemical

## O=C1[O][Pt]2([NH][C@@H]3CCCC[C@H]3[NH]2)[O]C1=O [oxaliplatin]
Primary rat astrocytes
  production of the superoxide anion: 31.1 ± 2.1 µM
[1]; ADM-12 and oxaliplatin mixed in physiological solution
  structural integrity when mixed: remain structurally unaltered
[1]; ADM-12 with oxaliplatin in physiological solution, 24 and 48 hours, room temperature and 37° C.
  signal variations at 1H NMR and in mass spectra: does not show signal variations
